From PubChem BioAssay AID792 (PCMD, 2007)
Results filed as inconclusive are left out. Calls of active or inactive are those of the source. The rule behind the calls is not given here.

Target: S. cerevisiae eIF2B mutant, luciferase reporter luminescence
Assay: eIF2B reporter inhibitors in yeast strains, dose response, S. cerevisiae, mutant, wild-type, luminescence, growth (AID 792)
[1] = measured here: mutant yeast growth
[2] = S. cerevisiae wild-type, luminescence

SMILES | IC50 | IC50 [1] | IC50 [2]
CCCCCn1c(NC(=O)c2ccco2)c(S(=O)(=O)c2ccc(C)cc2)c2nc3ccccc3nc21 | > 100 µM (inactive) | > 100 µM | –
Cc1cnc(NC(=O)CN(C)S(=O)(=O)c2ccc(Cl)cc2)s1 | > 100 µM (inactive) | > 100 µM | –
CCOC(=O)N1CCN(C(=O)CN(Cc2ccc(Cl)cc2)S(=O)(=O)c2ccc(C)cc2)CC1 | > 100 µM (inactive) | > 100 µM | –
COc1ccc2[nH]c(=O)c(CN(C(=O)c3cccnc3)c3ccc(C)cc3)cc2c1 | > 100 µM (inactive) | > 100 µM | –
CCCC(CCC(=O)NC1CCCCC1)C(=O)O (stereo not drawn) | > 100 µM (inactive) | > 100 µM | –
O=C(CCc1ccccc1)Nc1ccc(Cl)cn1 | > 100 µM (inactive) | > 100 µM | –
COc1ccc(NC(=O)C(=O)NCCN2CCN(C(=O)c3cccs3)CC2)cc1 | > 100 µM (inactive) | > 100 µM | –
NC(=O)CSC1=Nc2ccccc2C2=NC(CC(=O)NCc3cccs3)C(=O)N12 (stereo not drawn) | > 100 µM (inactive) | > 100 µM | –
Fc1ccc2nc(Nc3nc4c(s3)CCCC4)sc2c1 | > 100 µM (inactive) | > 100 µM | –
CCOC(=O)c1c(N)nn(C(C)=O)c1-c1ccccc1 | > 100 µM (inactive) | > 100 µM | –
O=C(Nc1ccccn1)c1cc2ccccc2o1 | inactive | 56.3 µM | 4.46 µM
CN1CCN(c2nc(N3CCN(CCO)CC3)nc3ccccc23)CC1 | > 100 µM (inactive) | > 100 µM | –
Cn1c(=O)cc(SCC(=O)NCCCN2CCOCC2)c2ccccc21 | > 100 µM (inactive) | > 100 µM | –
COc1ccc(S(=O)(=O)CCC(=O)N2c3ccccc3CC2C)cc1 (stereo not drawn) | > 100 µM (inactive) | > 100 µM | –
Cc1nn(-c2ccccc2)c(Cl)c1/C=N/Nc1ccc(S(=O)(=O)Nc2ccccc2C(=O)O)cc1[N+](=O)[O-] | > 100 µM (inactive) | > 100 µM | –
Cc1noc(C)c1C(=O)Nc1ccc2c(c1)CCC2 | > 100 µM (inactive) | > 100 µM | –
CCOC(=O)C1=C(C)NC(SCc2cc(=O)[nH][nH]2)=C(C#N)C1c1cccs1 (stereo not drawn) | > 100 µM (inactive) | > 100 µM | –
Cc1cccc(-c2nnc(SCC#N)n2Cc2ccccc2)c1 | > 100 µM (inactive) | > 100 µM | –
CCOC(=O)C1CCCN(C(=O)c2cc3c(C)nc4ccccc4c3o2)C1 (stereo not drawn) | > 100 µM (inactive) | > 100 µM | –
CC(C)CCNC1=NCCCCC1 | > 100 µM (inactive) | > 100 µM | –
O=c1c2ccccc2nc(-c2ccco2)n1-c1nc2ccccc2s1 | > 100 µM (inactive) | > 100 µM | –
O=c1c(-c2cc3ccccc3o2)[n+]([O-])c2ccccc2n1OCc1ccccn1 | > 100 µM (inactive) | > 100 µM | –
Cc1cccc(-n2c(SCC(=O)Nc3nonc3C)nnc2-c2ccoc2C)c1 | > 100 µM (inactive) | > 100 µM | –
CCOc1ccccc1NC(=O)c1ccccc1-c1nc(-c2ccccc2)no1 | > 100 µM (inactive) | > 100 µM | –
COc1ccc(N(C(=O)c2ccco2)S(=O)(=O)c2cccs2)cc1 | > 100 µM (inactive) | > 100 µM | –
Cc1ccc(-c2cn(S(=O)(=O)c3cccc4nsnc34)nc2N)cc1 | > 100 µM (inactive) | > 100 µM | –
COC(=O)c1sc(NC(=O)COc2cccc3ccccc23)nc1C | > 100 µM (inactive) | > 100 µM | –

SMILES | IC50 | IC50 [1] | IC50 [2]
Cn1c(/C(C#N)=C(\O)CN2CCN(Cc3ccccc3)CC2)nc2ccccc21 | > 100 µM (inactive) | > 100 µM | –
O=C(CSc1nccc(=O)[nH]1)N1CCCc2ccccc21 | > 100 µM (inactive) | > 100 µM | –
Cc1cc(C)cc(NS(=O)(=O)c2ccc3[nH]c(=O)[nH]c3c2)c1 | > 100 µM (inactive) | > 100 µM | –
O=S(=O)(N1CCCCC1)N1CCCN(S(=O)(=O)N2CCCCC2)CC1 | > 100 µM (inactive) | > 100 µM | –
CCCCNC(=O)OC1CCS(=O)(=O)C1 (stereo not drawn) | > 100 µM (inactive) | > 100 µM | –
CCCCOc1ccc(C2CC(=O)N(C)C2=O)cc1 (stereo not drawn) | > 100 µM (inactive) | > 100 µM | –
Cc1ccccc1C(=O)Nc1ccccn1 | > 100 µM (inactive) | > 100 µM | –
COC(=O)Cn1c2ccc(OC)cc2c2nc3ccccc3nc21 | > 100 µM (inactive) | > 100 µM | –
CN1C(=O)N(C)C2(c3ccccc3)NC(=O)NC12c1ccccc1 (stereo not drawn) | > 100 µM (inactive) | > 100 µM | –
CCc1ccc2oc(-c3cccc(NC(=O)c4cccnc4)c3)nc2c1 | > 100 µM (inactive) | > 100 µM | –
CCOC(=O)Cn1c(=O)c(-c2ccccc2NCc2ccccc2)nc2ccccc21 | > 100 µM (inactive) | > 100 µM | –
N#Cc1c(N2CCOCC2)nc(-c2ccco2)c2c1CCCC2 | > 100 µM (inactive) | > 100 µM | –
COc1ccc(Cl)cc1C(=O)N1CCN(c2ccccn2)CC1 | > 100 µM (inactive) | > 100 µM | –
Cc1ccc2nc(/C(C#N)=C\c3ccc(N4CCOCC4)o3)[nH]c2c1 | > 100 µM (inactive) | > 100 µM | –
CCOC(=O)c1cc(S(=O)(=O)N2CCN(C(=O)OCC)CC2)cn1C | > 100 µM (inactive) | > 100 µM | –
Nc1nc(NCc2ccccc2)nc(-c2ccccc2)n1 | > 100 µM (inactive) | > 100 µM | –
CC(C)C1Oc2ccccc2N(CC(=O)N(Cc2ccccn2)CC2CCCO2)C1=O (stereo not drawn) | > 100 µM (inactive) | > 100 µM | –
CCOC(=O)C1(C)/C(=N/Nc2ccccc2)C(=O)C(=O)N1c1ccccc1 (stereo not drawn) | > 100 µM (inactive) | > 100 µM | –
COc1ccccc1NC(=O)c1cc2ccccc2o/c1=N\O | > 100 µM (inactive) | > 100 µM | –
CCOP(=O)(C#CC(C)(C)C)C1(O)CCCCC1 (stereo not drawn) | > 100 µM (inactive) | > 100 µM | –
COCCn1c(-c2ccccc2)cc(C(=O)O)c1C | > 100 µM (inactive) | > 100 µM | –
COc1cc(C)nc(N2CCCC(C(=O)Nc3cccc(Cl)c3C)C2)n1 (stereo not drawn) | > 100 µM (inactive) | > 100 µM | –
COc1ccc(C2SCC(=O)Nc3c2c(C)nn3C2CCOC(C)(C)C2)cc1 (stereo not drawn) | > 100 µM (inactive) | > 100 µM | –
COc1ccc(-c2nnn(CC(=O)N(Cc3ccc(F)cc3)C(C(=O)NC3CCCC3)c3ccc(F)cc3)n2)cc1 (stereo not drawn) | > 100 µM (inactive) | > 100 µM | –
C=CCn1c(COc2ccccc2F)nnc1SCC(=O)Nc1cc2oc3ccccc3c2cc1OC | > 100 µM (inactive) | > 100 µM | –
CC(=C1C(=O)c2ccccc2C1=O)N1CCN(CCN=Cc2c(O)n(C)c(=O)n(C)c2=O)CC1 | > 100 µM (inactive) | > 100 µM | –
O=c1c(Cl)c(NCCCO)cnn1-c1nc2ccccc2[nH]1 | inactive | 29.2 µM | 15.9 µM

SMILES | IC50 | IC50 [1] | IC50 [2]
Cc1cc(C)c(NC(=O)CSc2nnc(Cc3cccn3C)n2-c2ccc(F)cc2)c(C)c1 | > 100 µM (inactive) | > 100 µM | –
O=C1c2ccccc2C(=O)C1c1ccncc1 | inactive | > 100 µM | 17.9 µM
CCS(=O)(=O)N1CCCC(C(=O)NCCN(C)Cc2ccccc2)C1 (stereo not drawn) | > 100 µM (inactive) | > 100 µM | –
COc1cccc(C(=O)Nc2cccc(C(=O)N3CCOCC3)c2)c1 | > 100 µM (inactive) | > 100 µM | –
COc1ccc(C(=O)Nn2c(C)nnc2-n2nc(C)cc2C)cc1OC | > 100 µM (inactive) | > 100 µM | –
CN1CCN(C(=O)CSc2nc(-c3ccncc3)ccc2C#N)CC1 | > 100 µM (inactive) | > 100 µM | –
COc1ccc(C2(C)NC(=O)N(CC(=O)Nc3ccc4c(c3)OCO4)C2=O)cc1OC (stereo not drawn) | > 100 µM (inactive) | > 100 µM | –
CC(=O)Nc1cc(C(F)(F)F)ccc1OCCOc1ccccc1 | > 100 µM (inactive) | > 100 µM | –
CCOC(=O)c1[nH]c2ccc(OC)cc2c1NC(=O)C(C)N1CCSCC1 (stereo not drawn) | > 100 µM (inactive) | > 100 µM | –
COc1ccc(C(=O)/C=C/Nc2ccccn2)cc1 | inactive | > 100 µM | 18.3 µM
CCC(=O)N1CCc2cc(S(=O)(=O)NC(C(=O)NCc3ccc(F)cc3)C(C)C)ccc21 (stereo not drawn) | > 100 µM (inactive) | > 100 µM | –
Cc1c(C(=O)N2CCN(c3ccccc3F)CC2)sc2nc(-c3ccccc3)cn12 | > 100 µM (inactive) | > 100 µM | –
CC(=O)NC(CCS(C)(=O)=O)C(=O)Nc1ccccc1Cl (stereo not drawn) | > 100 µM (inactive) | > 100 µM | –
COc1ccc(NC(=O)CSc2ncnc3c2cnn3Cc2ccccc2)cc1OC | > 100 µM (inactive) | > 100 µM | –
CCCCCOC(=O)Nc1nnc(CCC)s1 | > 100 µM (inactive) | > 100 µM | –
Nc1cc2c(cc1C(=O)c1ccccc1)OCCO2 | > 100 µM (inactive) | > 100 µM | –
COc1cc2cc(C(c3nnnn3C3CCCCC3)N(C)C3CCCCC3)c(=O)[nH]c2cc1OC (stereo not drawn) | > 100 µM (inactive) | > 100 µM | –
CCOC(=O)c1c(NC(=O)COC)sc2c1CCCC2 | > 100 µM (inactive) | > 100 µM | –
COc1ccc(Cl)cc1-n1c(N)c(C(N)=O)sc1=S | > 100 µM (inactive) | > 100 µM | –
O=C(CCN1CCN(C(=O)c2ccco2)CC1)Nc1ccc(F)cc1 | > 100 µM (inactive) | > 100 µM | –
Nn1c(COc2cccc(Br)c2)nnc1SCC(=O)N1CCc2ccccc2C1 | > 100 µM (inactive) | > 100 µM | –
Cc1nnc(NC2CCCCC2)[nH]c1=O | > 100 µM (inactive) | > 100 µM | –
O=C(Nc1cccnc1)c1noc2c1CCCCC2 | inactive | > 100 µM | 97.3 µM
CCOC(=O)CSc1ccc(-c2nc3cc(C)c(C)cc3[nH]2)cn1 | > 100 µM (inactive) | > 100 µM | –
Cc1nn(C)c(C)c1CN(C)C(=O)c1cc2nc(-c3ccco3)cc(C(F)(F)F)n2n1 | > 100 µM (inactive) | > 100 µM | –
